From the NIST ThermoML archive (doi:10.1021/je900283v) come the findings set out here.

SMILES strings stand for the structures. ± gives the expanded uncertainty stated by the source.

The conditions of data set [1]: Crystal; DTA.
Data set [2] in a line: Molar enthalpy of transition or fusion. The settings on record: Crystal; DSC.

Take `CC[C@@]1(O)C(=O)OCc2c1cc1n(c2=O)Cc2cc3cc(O)ccc3nc2-1`: in data set [1], the Normal melting temperature was found to be 194.00 ± 1 °C. Also, the “Molar enthalpy of transition or fusion” value in data set [2] came to 53.4 ± 1.4 kJ/mol.
